Laboratory results: article PMC9681820, “A PDE10A inhibitor CPL500036 is a novel agent modulating striatal function devoid of most neuroleptic side-effects” (Frontiers in Pharmacology, 2022)
Like-named read-outs stand apart in the source and are kept apart here.

What was measured:
[1] = test system: Salmonella typhimurium TA1537; assay: Ames test; conditions: CPL500036 5000µg/plate, n=3
[2] = test system: Salmonella typhimurium TA98; assay: Ames test; conditions: CPL500036 5000µg/plate, n=3
[3] = test system: Salmonella typhimurium TA100; conditions: CPL500036 5000µg/plate, n=3
[4] = test system: Salmonella typhimurium TA1535; conditions: CPL500036 5000µg/plate, n=3
[5] = test system: Escherichia coli WP2 uvrA; assay: Ames test; conditions: CPL500036 5000µg/plate, n=3
Sprague–Dawley rats = assay: Hyperprolactinemia: plasma prolactin before and 2 h after administration; type: in vivo; conditions: 3 mg/kg, p.o., n = 4
Protocol: Four male Sprague–Dawley rats (∼10 weeks; Mossakowski Medical Research Institute, Polish Academy of Sciences, Warsaw, Poland), underwent gavage with CPL500036 (3 mg/kg), haloperidol (3 mg/kg; as a positive control) or vehicle. Rats were fasted for 16 h before administration. Blood samples from the tail vein were collected immediately before and 2 h after administration. Plasma was obtained by centrifugation (1,600 × g, 20 min, 4°C) of blood samples collected on K2EDTA, and was stored at −80°C until analyses. The prolactin concentration in plasma samples was determined using the Prolactin (rat) EIA kit (Bertin Rockville, MD, United States) according to the manufacturer’s protocol. The prolactin concentration difference was assessed as follows: %∆prolactin=cprolactin, 2h−cprolactin, 0h/[…] (1)

[6] = design: method as in ref Megens A. A. H. P. et al., 2014; Suzuki et al., 2015; Arakawa et al., 2016; conditions: compared with marketed antipsychotics; ref Megens A. A. H. P. et al., 2014; Suzuki et al., 2015; Arakawa et al., 2016; cited from earlier work
[7] = test system: cardiac 3D spheroids (cardiomyocytes and fibroblasts derived from human pluripotent cells); assay: Cardiotoxicity in spontaneously beating cardiac 3D spheroids; type: cell-based; conditions: 3D cardiac spheroids; for AC50: Homo sapiens
Protocol: The cardiotoxic effect of CPL500036 was evaluated in spontaneously beating cardiac 3D spheroids (comprising cardiomyocytes and fibroblasts derived from human pluripotent cells) by Cyprotex (Cheshire, United Kingdom). Experiments were carried out in accordance with the service-provider’s protocol. Specific parameters of cell health were assessed: number and size of spheroids, DNA structure, intracellular level of calcium ions, mitochondrial mass, membrane potential and cellular ATP. […] During the 14 days of the experiment, redosing occurred on three occasions. Spheroid hypertrophy was measured on days 3, 7, 10, and 14 using the “brightfield live cellular imaging” mode of a Cellomics ArrayScan® XTI system (Thermo Scientific, Waltham, MA, United States). On day-14, the spheroid model was analyzed using the confocal mode of Cellomics ArrayScan XTI following incorporation of appropriate fluorescent dyes. Subsequently, cellular ATP content was measured using CellTiterGlo® (Promega, Fitchburg, WI, United States). Mitomicyn C and dasatinib were used as positive controls (Supplementary Table S1).
concentration at which 50% maximum effect is observed for each cell health parameter; NR - No response observed.

PDE10A = PDE10A (Homo sapiens, UniProt Q9Y233); design: method as in ref Schmidt et al., 2008; Grauer et al., 2009; Harada et al., 2015; conditions: ref Schmidt et al., 2008; Grauer et al., 2009; Harada et al., 2015; read-out: IC50 against PDE10A; cited from earlier work
Sequence of PDE10A (Q9Y233 whole entry, species assumed): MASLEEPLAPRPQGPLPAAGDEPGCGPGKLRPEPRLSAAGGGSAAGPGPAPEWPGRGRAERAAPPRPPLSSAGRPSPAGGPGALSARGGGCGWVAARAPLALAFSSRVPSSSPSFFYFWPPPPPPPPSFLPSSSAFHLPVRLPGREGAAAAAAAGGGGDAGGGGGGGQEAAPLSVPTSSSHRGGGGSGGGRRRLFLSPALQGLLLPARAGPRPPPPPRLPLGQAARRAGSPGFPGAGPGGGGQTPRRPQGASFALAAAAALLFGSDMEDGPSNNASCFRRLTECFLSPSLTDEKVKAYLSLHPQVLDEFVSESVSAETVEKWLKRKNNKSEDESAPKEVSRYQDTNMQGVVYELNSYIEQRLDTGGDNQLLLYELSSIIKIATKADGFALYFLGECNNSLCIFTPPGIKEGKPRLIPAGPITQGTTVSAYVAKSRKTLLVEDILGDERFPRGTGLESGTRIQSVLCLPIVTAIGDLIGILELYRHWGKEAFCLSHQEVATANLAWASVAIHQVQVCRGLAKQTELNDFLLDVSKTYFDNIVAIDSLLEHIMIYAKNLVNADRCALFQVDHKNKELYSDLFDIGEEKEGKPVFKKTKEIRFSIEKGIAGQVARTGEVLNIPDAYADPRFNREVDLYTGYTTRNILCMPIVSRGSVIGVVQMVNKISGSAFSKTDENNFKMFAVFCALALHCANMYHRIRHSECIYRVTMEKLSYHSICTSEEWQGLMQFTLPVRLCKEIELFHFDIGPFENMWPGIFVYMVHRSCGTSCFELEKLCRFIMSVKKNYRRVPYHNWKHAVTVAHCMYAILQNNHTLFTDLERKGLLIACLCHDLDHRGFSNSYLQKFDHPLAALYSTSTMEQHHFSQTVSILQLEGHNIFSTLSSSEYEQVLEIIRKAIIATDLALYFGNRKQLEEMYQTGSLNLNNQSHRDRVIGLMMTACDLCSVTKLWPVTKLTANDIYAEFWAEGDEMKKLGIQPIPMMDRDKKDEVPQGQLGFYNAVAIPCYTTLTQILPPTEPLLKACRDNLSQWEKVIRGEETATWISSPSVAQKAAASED

[8] = Without metabolic activation (-S9 mix), 9AA 50µg/plate
[9] = With metabolic activation (+S9 mix), 2AA 2µg/plate
[10] = read-out: Mitochondrial mass AC50
[11] = read-out: Mitochondrial membrane potential AC50
[12] = Without metabolic activation (-S9 mix), SAZ 2µg/plate
[13] = Without metabolic activation (-S9 mix), NPD 4µg/plate

In the case of `Nc1c2ccccc2nc2ccccc12` [9AA, 9-Aminoacridine, reference compound], the Mutation rate [1, 8] is reported as 50.65 and the “Revertants Mean±SD” value [1, 8] is reported as 287.0±65.60.
With `Nc1ccc2cc3ccccc3cc2c1` [2AA, 2-aminoanthracene, reference compound] the Mutation rate [2, 9] was 84.13, the “Revertants Mean±SD” value [2, 9] was 1682.7±156.02 and the Mutation rate [3, 9] was 19.26. The “Revertants Mean±SD” value [3, 9] was 1464.0±361.88, the Mutation rate [4, 9] was 11.38 and the “Revertants Mean±SD” value [4, 9] was 159.3±15.57. The Mutation rate [1, 9] was 9.0, the “Revertants Mean±SD” value [1, 9] was 78.0±7.94 and the Mutation rate [5, 9] was 8.49. The “Revertants Mean±SD” value [5, 9] was 203.7±3.79.
With `O=C(CCCN1CCC(O)(c2ccc(Cl)cc2)CC1)c1ccc(F)cc1` [Haloperidol] the “prolactin release (relative change in the prolactin level before and 2 h after administration)” value (Sprague–Dawley rats) was “induced significant prolactin release”.
For `COc1cn(-c2ccc(-n3cccn3)cc2F)nc(-c2ccnn2-c2ccccc2)c1=O` [TAK-063], the cataleptic effect [6] is listed as “weaker than that for marketed antipsychotics and did not increase with increasing dose”.
With `CO[C@@]12[C@H](COC(N)=O)C3=C(C(=O)C(C)=C(N)C3=O)N1C[C@@H]1N[C@@H]12` [Mitomycin C] the “Calcium MEC” value [7] was 79.1 µM, the “Cellular ATP MEC” value [7] was 0.243 µM and the “DNA structure MEC” value [7] was 0.704 µM. The “Mitochondrial mass MEC” value [7] was less than 0.04 µM, the “Mitochondrial membrane potential MEC” value [7] was 1.89 µM and the “Spheroid count MEC” value [7] was 2 µM. For the same compound, the “Spheroid size MEC” value [7] was 2.97 µM, the AC50 ([7]; read-out: Calcium AC50) was greater than 100 µM and the AC50 ([7]; read-out: Cellular ATP AC50) was 0.766 µM. The AC50 ([7]; read-out: DNA structure AC50) was 4.41 µM, the AC50 [7, 10] was 0.731 µM and the AC50 [7, 11] was 3.88 µM. For the same compound, the AC50 ([7]; read-out: Spheroid size AC50) was greater than 100 µM.
With `[N-]=[N+]=[N-].[Na+]` [SAZ, Sodium Azide, reference compound] the Mutation rate [3, 12] was 12.76, the “Revertants Mean±SD” value [3, 12] was 1093.0±64.66 and the Mutation rate [4, 12] was 74.21. For the same compound, the “Revertants Mean±SD” value [4, 12] was 940.0±91.95.
With `Nc1ccc([N+](=O)[O-])cc1N` [NPD, 4-Nitro-1,2-phenylenediamine, reference compound] the Mutation rate [2, 13] was 18.6 and the “Revertants Mean±SD” value [2, 13] was 335.0±57.51.
For `COCCc1ccc(-c2c(C)nc3c(N4CCOCC4)nccn23)cn1` [JNJ-42314,415], the cataleptic effect [6] is listed as “weaker than that for marketed antipsychotics and did not increase with increasing dose”.
In the case of `Cc1ncc(C)n2nc(/C=C/c3nc(N4CCCC4)cc(N4CCOCC4)n3)nc12` [PDM-042, (E )-4-(2-(2-(5,8-dimethyl-[1,2, 4]triazolo[1,5-a]pyrazin-2-yl)vinyl)-6-(pyrrolidin-1-yl)pyrimidin-4-yl)morpholine], the cataleptic effect [6] is listed as “weaker than that for marketed antipsychotics and did not increase with increasing dose”.
In the case of `Cc1nc(Nc2ncc(C(=O)Nc3c(C)cccc3Cl)s2)cc(N2CCN(CCO)CC2)n1` [Dasatinib], the “Calcium MEC” value [7] is reported as 43.0 µM, the “Cellular ATP MEC” value [7] is reported as 0.075 µM and the “DNA structure MEC” value [7] is reported as 2.92 µM. For the same compound, the “Mitochondrial mass MEC” value [7] was 2.43 µM, the “Mitochondrial membrane potential MEC” value [7] was 16.82 µM and the “Spheroid size MEC” value [7] was 0.469 µM. For the same compound, the AC50 ([7]; read-out: Calcium AC50) was greater than 50 µM, the AC50 ([7]; read-out: Cellular ATP AC50) was 0.374 µM and the AC50 ([7]; read-out: DNA structure AC50) was greater than 50 µM. It also gave an AC50 [7, 10] greater than 5 µM, an AC50 [7, 11] of 26.4 µM and an AC50 ([7]; read-out: Spheroid count AC50) greater than 50 µM. It also gave an AC50 ([7]; read-out: Spheroid size AC50) of 23.4 µM.
In the case of `FC(F)(F)Cn1cc(-c2ccncc2)c(-c2ccc(OCc3ccc4ccccc4n3)cc2)n1` [TP-10], the IC50 (PDE10A) is given as 0.0003 µM.
`COS(C)(=O)=O` [MMS, Methyl methanesulfonate, reference compound] gave a Mutation rate ([5]; Without metabolic activation (-S9 mix), MMS 2µg/plate) of 33.85.
